Assay results: patent US20040115790A1, “Method for production of secreted proteins in fungi” (priority 2001, published 2004)

Key:
[1] = tested on: T. reesei Rut-C30; test: Synthesis and secretion of labelled CBHI (2D gel, phosphorimager) in treated T. reesei cultures; type: cell-based, Trichoderma reesei; settings: for CBHI synthesis rate / CBHI secretion rate: percentage of non-treated control cultures; for CBHI secretion rate: production into culture medium; for Minimum secretion time of CBHI: untreated cells 11 min
Protocol: Proteins were metabolically labelled with ^35S-methionine using the methods described in (Pakula et al. 2000). The preparation of the samples and analysis of the labelled proteins were carried out essentially as in (Pakula et al. 2000). The labelling experiment was started after 10 min of addition of DTT or A23187 or after 15 min of addition of BFA. 1 mCi of [^35S]-methionine (Amersham S J 1015, in vivo cell labelling grade, 1000 Ci mmol^−1, 10 μCi μl^−1) was added to a 50 ml aliquot of the cultivation. Untreated cultures were labelled in parallel and in a similar manner. Samples of 2 ml were collected during a time course. Labelled total protein in cell extracts and culture supernatant was measured using scintillation counting of TCA insoluble material in the samples, and labelled specific proteins (e.g. CBHI) were analysed using 2D gel electrophoresis, and the proteins were quantified using a phosphorimager (Molecular Dynamics). The rates of protein synthesis and secretion, and the average synthesis time and minimum secretion time were determined as described in Pakula et al. 2000.
The effect of the treatments on the synthesis of extracellular proteins, specifically, and on their transport was studied using the major cellulase produced by the fungus, cellobiohydrolase I (CBHI), as a model protein. […] The effect of the treatment with the ionophore A23187 on protein transport was less pronounced. Formation of the full pI pattern of CBHI was delayed by 15-20 minutes compared to the control cells, and CBHI with full pattern of the pI forms was secreted into the culture medium but with a delay.
The labelled CBHI from samples of cell extract and culture supernatant at different time points of the labelling experiment was analysed in 2D gels and quantified using a phosphorimager (Molecular Dynamics). Parameters, such as the synthesis and secretion rate of CBHI (the amount of labelled protein produced per time unit) as well as the average synthesis time and the minimum secretion time of CBHI, were determined (for the method see Pakula et al. 2000). The quantification of the labelled CBHI during the labelling experiment is shown in FIG. 3, and the deduced parameters describing the synthesis and secretion of CBHI in these conditions are summarised in the Table 1. The average synthesis time of full-length CBHI was not affected in the DTT and BFA treated cultures, being in accordance with the result that total protein synthesis is not affected by these treatments (see above).

[2] = tested on: T. reesei Rut-C30; test: Northern analysis of transcript levels in treated T. reesei cultures; settings: for Expression of the short form of hac1 mRNA: normalised with total hac1 signal
Protocol: T. reesei strain Rut-C30 (Montenecourt & Eveleigh, 1979) was cultivated on minimal medium ((H4)2SO4 7.6 g l^−1, KH2PO4 15.0 g l^−1, MgSO4.7H2O 0.5 g l^−1, CaCl2.H2O 0.2 g l^−1, CoCl2 3.7 mg l^−1, FeSO4.7H2O 5 mg l^−1, ZnSO4.7H2O 1.4 mg l^−1, MnSO4.7H2O 1.6 mg l^−1, pH adjusted to 5.2 with KOH) that contained lactose 20 g l^−1 as a carbon source. Spore suspension with 2×10^7 spores (stored in −80° C. in 20% glycerol) was inoculated into 200 ml of the medium, grown in shake flasks at 28° C. with shaking at 210 rpm. After 4 days of cultivation the cultures were diluted 1/10 into fresh medium, grown further for 24 h, and treated either with 10 mM dithiothreitol (DTT), 50 μg/ml brefeldin A (BFA) or 5 μM Ca^2+-ionophore A23187. A corresponding volume of the solvent of the stock solution was added into the untreated control cultures (0.2% and 0.5% DMSO for the control cultures for A23187 and BFA treatment, respectively, and double distilled water for the control for DTT treatment).
For the Northern analysis mycelial samples were collected from cultures treated with DTT, BFA or A23187 and from the untreated control cultures after 0, 15, 30, 60, 90, 120, 240 and 360 minutes of the treatment. The first sample (the time point 0 min was withdrawn immediately before addition of DTT, BFA or A23187). The mycelium was filtered, washed with equal volume of 0.7% NaCl, frozen immediately in liquid nitrogen, and stored at −80° C. Total RNA was isolated using the Trizol™ Reagent (Gibco BRL) essentially according to manufacturer's instructions. Northern blotting and hybridisation was carried out according to standard procedures (Sambrook et al). Full-length cDNA of the genes were used as probes.
Northern analysis of the samples collected during the treatment with A23187, DTT or BFA was carried out to study the effect of the treatments at transcriptional level.

[3] = tested on: T. reesei Rut-C30; test: Metabolic labelling (35S-methionine): total protein synthesis and secretion in treated T. reesei cultures; type: cell-based, Trichoderma reesei; settings: percentage of non-treated control cultures, 5 μM A23187, 50 μg/ml BFA or 10 mM DTT; for Total protein secretion rate: TCA insoluble radioactivity in culture supernatant
[4] = tested on: A. niger AB4.1; test: Northern analysis of transcript levels in DTT treated A. niger cultures; type: cell-based, Aspergillus niger; settings: 20 mM DTT
Protocol: The Aspergillus niger strains used in the experiments were AB4.1 (van Hartingsveldt et al., 1987) and AS1.1 (Ngiam et al., 2000). Spores resuspended in 0.1% Tween 20 (Sigma, UK) were used to inoculate liquid cultures to a final density of 1×10^5 spores per ml of medium. The strains were maintained on potato dextrose agar slopes (Difco, USA) with a supplement of 10 mM uridine for A. niger AB4.1. Slopes were grown at 30° C. until they had sporulated and made fresh for each experiment. ACMS/N/P medium (Archer et al., 1990) was used for all the experiments involving liquid culture. A. niger AB4.1 cultures were again supplemented with 10 mM uridine. Cultures were grown in 100 ml aliquots of medium in 250 ml conical flasks at 25° C. and 150 rpm. In the DTT stress experiments, AB4.1 cultures were grown for 44 hours before addition of 1 ml of 2M DTT solution to give a final concentration of 20 mM. […]
Total RNA was extracted from 100 mg of freeze dried, ground mycelia using the RNeasy Plant Mini Kit (Qiagen, UK) according to the manufacturer's instructions. RNA was quantified by reading absorbances at 230, 260 and 280 nm on a Uvikon 850 spectrophotometer (Kontron Instruments, UK). Ratios of over 2.0 for the 260 nm:280 nm readings were accepted as being indicative of good quality RNA. RNA quality was also assessed by running samples on 7% formaldehyde gels (Sambrook et al., 1989). […]

[5] = 5 μM A23187, 50 μg/ml BFA or 10 mM DTT

| SMILES | CBHI synthesis rate [1, 5] | CBHI secretion rate [1, 5] | Expression level of sar1 and ypt1 ([2]; 10 mM DTT) | Transcript level of xyn1 and hfb2 ([2]; 10 mM DTT) | Expression of the short form of hac1 mRNA [2] | Total protein secretion rate [3] [%] | pdiA and bipA mRNA response [4] | Levels of pepA mRNA ([4]; control cultures show an increase) | Delay of formation of the full pI pattern of CBHI compared to the control cells ([1]; 5 μM A23187) | Increase of minimum secretion time of CBHI compared to the control cultures ([1]; 5 μM A23187) [min] | Prolongation of synthesis time of CBHI compared to the control cultures ([1]; 5 μM A23187) [min] | Average time of CBHI synthesis ([1]; untreated cells 5.7 min, 5 μM A23187, 50 μg/ml BFA or 10 mM DTT) [min] | Minimum secretion time of CBHI [1, 5] [min] | Total protein synthesis rate ([3]; TCA insoluble radioactivity in cell extracts) [%] |
| --- | --- | --- | --- | --- | --- | --- | --- | --- | --- | --- | --- | --- | --- | --- |
| O[C@H](CS)[C@H](O)CS (racemic) [DTT, dithiothreitol] | 4-24% | no production of labelled CBHI into the culture medium was detected | not affected | reduced | expression of the shortened, actively translated form | 5 | rapid response | no significant increase |  |  |  |  |  |  |
| CNc1ccc2oc(C[C@H]3O[C@@]4(CC[C@H]3C)O[C@H]([C@H](C)C(=O)c3ccc[nH]3)[C@H](C)C[C@H]4C)nc2c1C(=O)O [A23187] | 26% | 27% |  |  | transient and rather weak expression | 23 |  |  | 15-20 minutes | 10 | 3 to 4 | 9 | 21 | 51 |
| C[C@H]1CCC/C=C/[C@@H]2C[C@H](O)C[C@H]2[C@H](O)/C=C/C(=O)O1 [BFA, brefeldin A] | 52% | 4% |  |  | expression of the shortened, actively translated form | 5 |  |  |  |  |  |  | 69 |  |
